Results published in US20100137358A1, “SOLIFENACIN COMPOSITIONS” (DR. REDDY'S LABORATORIES LTD., priority 1996, published 2010).

Experiment: Storage stability of amorphous solifenacin succinate and premix compositions, purity and impurities by HPLC
Assay type: physicochemical
Conditions: triple laminated package, nitrogen atmosphere
Experimental: The spray-dried product was packaged in a triple laminated package (two polyethylene layers covered with a layer of aluminium foil) containing a nitrogen atmosphere and samples were analyzed for impurity content at the time of packaging and after 7 days of storage at 0-5° C., using high-performance liquid chromatography (HPLC). The results are tabulated below:
6. The dried solid was packed in a double polyethylene bag with a silica desiccant pouch and the package was exposed to 0-5° C. and room temperature (RT) conditions for 25 days, then was analyzed by XRD and HPLC. The analytical data are given below:
The solid prepared was packaged in a double polyethylene bag with a silica desiccant and exposed to 0-5° C. and room temperature (RT) conditions for 27 days, and then samples were analyzed by XRD and HPLC. The data are given below:
The dried solid was packaged in a double polyethylene bag with a silica desiccant and exposed to 0-5° C. conditions for 16 days. A sample was then analyzed by XRD and HPLC, giving the following results:
The solid prepared was packaged in a double polyethylene bag and exposed at 0-5° C. and at room temperature (RT) for 20 days. Samples were then analyzed by XRD and by HPLC, giving the data below:
The solid products of Examples 6A and 6B, similarly packaged and stored under 0-5° C. and RT conditions for about 7 months, were analyzed and the data are given below: […]

Compound: O=C(O[C@H]1CN2CCC1CC2)N1CCc2ccccc2[C@@H]1c1ccccc1 [Example 2, Amorphous Solifenacin Succinate]
- HSI (highest single impurity) (7th day of storage at 0-5° C.): 0.25 % of drug content
- HSI (highest single impurity) (initial, at the time of packaging): 0.03 % of drug content
